Test results from publication PMC2867956, “Interdomain Interactions Control Ca^2+-Dependent Potentiation in the Cation Channel TRPV4” (PLoS ONE, 2010).
Entries after “also recorded” stand apart in the source; their conditions may differ. Where two headings read alike, the source gives them in different places. No end group written: not given here.

Legend:
TRPV4 mutant KRA = assay: Whole-cell patch clamp, TRPV4 mutant KRA; conditions: 4α-PMA 1 µM, nominally Ca^2+-free; -100 and +100 mV, p = 0.012 and 0.007; n = 5
Method: (§4) Patch clamp recordings were performed on HEK293 cells in the whole cell configuration. Cells were clamped at a potential of −20 mV, and current-voltage (I–V) relations were obtained from voltage ramps from −100 mV to +100 mV. The standard extracellular solution contained 140 mM NaCl, 5 mM CsCl, 2 mM CaCl2, 1 mM MgCl2, 10 mM glucose, and 10 mM HEPES (pH 7.4 with NaOH). In nominally Ca^2+-free solutions, Ca^2+ was omitted. The standard intracellular solution contained 110 mM cesium methanesulfonate, 25 mM CsCl, 2 mM MgCl2, 0.362 mM CaCl2, 1 mM EGTA, and 30 mM HEPES (pH 7.2 with CsOH) with a calculated [Ca^2+] of 100 nM.
(§5) Patch clamp recordings were performed on HEK293 cells in the whole cell configuration using an EPC10 amplifier and Pulse software (HEKA, Lamprecht, Germany). […] Cells were clamped at a potential of –20 mV, and current-voltage (I-V) relations were obtained from voltage ramps from –100 mV to +100 mV with a duration of 400 ms applied every 4 seconds. Ramp data were acquired with a sampling rate of 20 kHz after filtering at 4 kHz. […] The standard intracellular solution contained 110 mM cesium methanesulfonate, 25 mM CsCl, 2 mM MgCl2, 0.362 mM CaCl2, 1 mM EGTA, and 30 mM HEPES (pH 7.2 with CsOH) with a calculated [Ca^2+] of 100 nM (MaxChelator, Chris Patton, Stanford, USA). […]

wt TRPV4 = assay: Whole-cell patch clamp, wild type TRPV4; type: cell-based, human
Description: (§1) (See Methods S1 for details).

CFP-TRPV4-YFP = conditions: HEK293 cells, Ca^2+-containing buffer; 4α-PMA data not shown; concomitant increase in donor fluorescence
TRPV4 mutant WIA = assay: Whole-cell patch clamp, TRPV4 mutant WIA; conditions: 4α-PMA 1 µM, nominally Ca^2+-free; -100 and +100 mV, p = 0.014 and 0.023; n = 8
Method: as §4, §5

CaM = CaM (UniProt P0DP23); assay: Fluorescence polarization, CaM binding to carboxyfluorescein-labeled TRPV4 peptides; conditions: 50 mM Tris pH 7.5, 100 mM KCl, 0.1% BSA, triplicate
Method: (§2) Protein interaction experiments were performed in buffers containing 50 mM Tris, pH 7.5, 100 mM KCl, 0.1% BSA and calcium at the indicated concentrations. Calcium concentrations below 50 µM were buffered with HEDTA, EGTA or EDTA at a buffer concentration of 10 mM. CaM concentrations were 10 µM or as indicated; the tracer peptide concentration was 100 nM. Fluorescence anisotropy was measured in a 384-well black multititer plate (Fluotrac 200, Greiner) using a Fusion alpha FP instrument (PerkinElmer) at 1 s reading time per well. Fluorescence polarization (FP) was calculated according to: [drawing 1] with Ipar and Iperp as the fluorescence emission intensities in planes parallel and perpendicular to the excitation plane. FP signals are given as mean±SEM of triplicate measurements in milli-P (mP) units.
(0.11 MB TIF) Click here for additional data file.

TRPV4 [1] = assay: FRET acceptor bleaching, full-length TRPV4 N and C termini in HEK293 cells; type: cell-based, human; conditions: extrapolated donor increase at full acceptor photobleaching; unstimulated HEK293; n = 7 (CFP-TRPV4-YFP), 20 and 13 as printed 'respectively'; p<0.0001 versus control
Description: as §1

[2] = system: TRPV4 C terminus peptide library; assay: Peptide library overlay, TRPV4 C terminus; type: binding, human; conditions: 20-mer peptides on filter, 100 nM biotinylated protein
Description: (0.31 MBTIF) Click here for additional data file.

TRPV4 C2 fragment [3] = assay: AlphaScreen interdomain interaction with C2; type: binding, human
Description: First, we did a complementation experiment to test whether a CaM molecule that binds to the C2 fragment of TRPV4 through its C-lobe can form an additional interaction with another CaM binding domain thus forming a ternary complex. […] We used an AlphaScreen-based proximity assay (Fig. 2, Methods S1) in which the acceptor beads were coated with the C-terminal fragment C2-Flag, and the donor beads either with the N-terminal CaM binding peptide P2-biotin, or, as a negative control, with C2-biotin. The interaction between the proteins was measured in the presence of increasing CaM concentrations in 100 µM Ca^2+ or 1 mM EGTA (Fig. 3A).
In an AlphaScreen interaction experiment, donor and acceptor beads were incubated with 10 nM C2-biotin and N2-Flag at concentrations ranging from 30 pM to 1.5 µM, respectively (Fig. 3C).
(§3) Proteins were expressed in E. coli, affinity purified and biotinylated if applicable (for details see Methods S1). For protein interaction measurements, a proximity assay system based on the AlphaScreen technology (PerkinElmer) was used (see Methods S1). Briefly, streptavidin-coated AlphaScreen donor and anti-Flag acceptor beads at a final concentration of 16.7 µg/ml were incubated in a 384-well plate format (OptiPlate-384, PerkinElmer) with C2-GST-biotin or P2-biotin and the respective Flag-tagged interaction protein at concentrations of 10 nM, if not otherwise indicated. Assay buffer conditions were 50 mM Tris, pH 7.4, 100 mM KCl, and 0.1% BSA. After incubation for 90 min at room temperature, the AlphaScreen output signal was recorded in a Fusion alpha FP instrument (PerkinElmer) at 2 s reading time per well. AlphaScreen signals are given as mean±SEM in counts per second (cps) units.
The expression plasmids containing the cDNA for CaM or TRPV4 fragments in the pGEX-2TK vector (Amersham) or a modified derivative that contains an in-frame Flag epitope 5’ to the multiple cloning site were transformed into the BL21(DE3) Escherichia coli host, and protein expression was induced by 200 mg/ml IPTG at an OD600 of 0.6. […] The GST-Flag fusion proteins were eluted with 50 mM Tris, pH 8.5, 100 mM KCl, and 10 mM glutathione. […] The purity of all proteins was confirmed by SDS-polyacrylamide gel electrophoresis and Coomassie staining, and the protein concentration determined by the method according to Bradford using an albumin concentration standard. […]
To establish an improved interaction assay, that allows the quantification of protein interactions on a medium to high throughput scale, a commercially available proximity assay system based on the AlphaScreen (Amplified Luminescent Proximity Homogenous Assay) technology (PerkinElmer) was modified. […]

TRPV4 C2 fragment [4] = assay: AlphaScreen-based CaM interaction assay with C2; type: binding, human
Method: as §3
The expression plasmids containing the cDNA for CaM or TRPV4 fragments in the pGEX-2TK vector (Amersham) or a modified derivative that contains an in-frame Flag epitope 5’ to the multiple cloning site were transformed into the BL21(DE3) Escherichia coli host, and protein expression was induced by 200 mg/ml IPTG at an OD600 of 0.6. […] The GST-Flag fusion proteins were eluted with 50 mM Tris, pH 8.5, 100 mM KCl, and 10 mM glutathione. The GST-fusion proteins intended for subsequent biotinylation were subjected to an additional wash step with 50 mM HEPES, pH 7.4, 100 mM KCl and eluted with 50 mM HEPES, pH 8.5, 100 mM KCl, and 10 mM glutathione. The purity of all proteins was confirmed by SDS-polyacrylamide gel electrophoresis and Coomassie staining, and the protein concentration determined by the method according to Bradford using an albumin concentration standard. Biotinylation was performed using a 10-fold molar excess of biotinamidocaproate N-hydroxysuccinimide ester (Sigma). After incubation at 4 °C for 12 h, the reaction was stopped by addition of a 10-fold molar excess of NH4Cl and unbound biotin ester removed by extensive dialysis against 50 mM Tris, pH 7.4, 100 mM KCl.
To establish an improved interaction assay, that allows the quantification of protein interactions on a medium to high throughput scale, a commercially available proximity assay system based on the AlphaScreen (Amplified Luminescent Proximity Homogenous Assay) technology (PerkinElmer) was modified. The assay principle had been originally developed as an enhanced immunoassay and initially termed luminescent oxygen channeling immunoassay (LOCI [1]). […] The resulting emission at a wavelength of 370 nm is further transformed by fluorophores within the bead into a final emission between 520 nm and 620 nm that can be detected by a photomultiplier. […]

[5] = molecular target: P5 peptide (TRPV4 C-terminal CaM binding site); assay: Fluorescence polarization, binding of CaM and isolated CaM lobes to labeled P5; parameters: species or system human; conditions: binding to fluorophore-labeled P5 at 100 µM Ca^2+; tracer 100 nM; pH 7.5
Method: We analyzed the properties of the complex between CaM and C-terminal fragments of the human TRPV4 ortholog, and investigated the structural determinants within the CaM molecule that are involved in binding.
as §2, with “Tracer peptides were synthesized and coupled to carboxyfluorescein (Dr. Sven Rothemund, Core unit peptide technologies, IZKF, Leipzig). Protein” for “Protein”

TRPV4 [6] = assay: Whole-cell patch clamp, effect of CaM/CaM mutant overexpression on Ca^2+-dependent TRPV4 current increase; type: cell-based, human
Description: This mutant may bind and displace endogenous CaM, but, owing to the N-terminal mutation, cannot fully substitute for the wild type molecule.
as §1

[7] = labeled peptide 100 nM, CaM 10 µM or as indicated, value is Ca^2+ concentration, read-out: Ca^2+ concentration at half-maximal CaM binding (Ca^2+-dependence, EC50)

## CCCCCCCCCCCCCC(=O)O[C@@H]1[C@@H](C)[C@@]2(O)[C@@H](C=C(CO)C[C@@]3(O)C(=O)C(C)=C[C@@H]23)[C@@H]2C(C)(C)[C@]12OC(C)=O [4α-PMA]
TRPV4 mutant KRA
  current activated by 4α-PMA versus wild type: Significantly larger currents; also recorded: significantly larger than the wild type
Wt TRPV4; 4α-PMA 1 µM, nominally Ca^2+-free, wild type, n = 9
  current activated by 4α-PMA: slow, small increase in currents
Wt TRPV4; nominally Ca^2+-free solutions, HEK293 cells
  activation of TRPV4: weak and slow
CFP-TRPV4-YFP
  change in FRET fluorescence on stimulation: transient decreases in the FRET
TRPV4 mutant WIA
  current activated by 4α-PMA versus wild type: Significantly larger currents; also recorded: significantly larger than the wild type

## CC(C)C[C@H](NC(=O)[C@H](CCCNC(=N)N)NC(=O)CNC(=O)[C@@H](NC(=O)[C@@H](NC(=O)[C@H](Cc1c[nH]cn1)NC(=O)[C@H](CO)NC(=O)[C@H](Cc1ccccc1)NC(=O)CN)[C@@H](C)O)C(C)C)C(=O)N[C@@H](CCCNC(=N)N)C(=O)N[C@@H](CCCNC(=N)N)C(=O)N[C@@H](CC(=O)O)C(=O)N[C@@H](CCCNC(=N)N)C(=O)N[C@@H](Cc1c[nH]c2ccccc12)C(=O)N[C@@H](CO)C(=O)N[C@@H](CO)C(=O)N[C@H](C(=O)N[C@H](C(=O)N1CCC[C@H]1C(=O)N[C@@H](CCCNC(=N)N)C(=O)N[C@H](C(=O)N[C@H](C(=O)N[C@@H](CCC(=O)O)C(=O)O)C(C)C)C(C)C)C(C)C)C(C)C [P5]
CaM; [7]
  EC50: 3.2 µM

## C-V4-Y: TRPV4 with CFP and YFP fused to the N- and C termini
TRPV4 [1]
  FRET efficiency: 14.6±1.1

## GRPNLRMKFQGAFRKGVPNP [P1]
CaM; [7]
  EC50: 3.6 µM

## N3: N-terminal TRPV4 fragment, residues 114-161, includes P2 (RHHSSDNKRWRKKIIEKQPQSPKAPAPQPPPILKVFNRPILFDIVSRG; UniProt Q9HBA0 114-161, looked up, fragment)
[2]
  overlay binding site, C terminus library: strong interaction was found with a region that corresponds to the CaM binding peptide P5
TRPV4 C2 fragment [3]; 10 nM C2-biotin, N2-Flag 30 pM to 1.5 µM, N3 data not shown
  interaction with C2: interdomain interaction could also be shown

## RSFPVFLRKAFRSGEMVTVGKSSD [P4]
CaM; [7]
  EC50: 7.3 µM
CaM; tracer peptide 100 nM, CaM 0.1 nM to 10 µM, read-out: CaM binding EC50
  EC50: 5 µM

## SSDNKRWRKKIIEKQPQSPK [P2]
TRPV4 C2 fragment [3]; 100 µM Ca^2+ or 1 mM EGTA, absence of CaM (C2: absence or presence of CaM)
  interaction with C2-Flag: strong constitutive interaction
TRPV4 C2 fragment [3]; no CaM, Ca^2+ 10 nM to 10 mM
  Ca^2+-dependence of P2/C2 interaction: already present at 0 Ca^2+ and essentially Ca^2+-insensitive over a wide range of Ca^2+ concentrations

## calmodulin [CaM]
TRPV4 C2 fragment [4]; AlphaScreen, C2-biotin with CaM-Flag or mutant, 10 nM each, value is Ca^2+ concentration, 50 mM Tris pH 7.4, 100 mM KCl, 0.1% BSA, 90 min room temperature, n = 3 independent experiments in triplicate, read-out: EC50 Ca^2+ concentration for C2 interaction (half maximal binding)
  EC50: 8.8 ± 1 µM
TRPV4 C2 fragment [4]; CaM-biotin and C2-Flag in 1 mM EGTA
  AlphaScreen signal of CaM/C2 in EGTA: No signal was detected
TRPV4 C2 fragment [4]; Ca^2+-dependence of C2 binding, common fit for CaM, CaM12 and CaM34, n = 3
  Hill coefficient (common): 2.0
TRPV4 C2 fragment [4]; Ca^2+-free buffers for CaM
  binding to TRPV4: neither binds to CaM in Ca^2+-free buffers
[5]
  Kd: 0.4 µM
TRPV4 [6]; HEK293 cells coexpressing TRPV4, 4α-PMA in Ca^2+-free bath, then 2 mM Ca^2+, +100 and -100 mV, CaM12 p = 0.013 and 0.007 compared to CaM overexpression
  current increase upon addition of Ca^2+ on overexpression: slightly increased the TRPV4 response to Ca^2+, but the increase is not statistically significant
TRPV4 [6]; nominally Ca^2+-free solution, data not shown
  effect on spontaneous or 4α-PMA-activated currents: had no effect on spontaneous currents, or currents activated by 4α-PMA
